Source: article PMC5896380, “Selective imaging of cathepsin L in breast cancer by fluorescent activity-based probes” (Chemical Science, 2018)
Non-standard residues stand in square brackets, D forms with d. *: point of attachment. Phe(F5) = N[C@@H](Cc1c(F)c(F)c(F)c(F)c1F)C(=O)O; Phe(3,4-F2) = N[C@@H](Cc1ccc(F)c(F)c1)C(=O)O; Phe(3-Cl) = N[C@@H](Cc1cccc(Cl)c1)C(=O)O; Phe(4-F) = N[C@@H](Cc1ccc(F)cc1)C(=O)O; ACC = NC(=O)Cc1cc(=O)oc2cc(N*)ccc12; hArg = N=C(N)NCCCC[C@H](N)C(=O)O; ClZ = O=C(OCc1ccccc1Cl)*; Orn = NCCC[C@H](N)C(=O)O; Dab = NCC[C@H](N)C(=O)O; Dap = NC[C@H](N)C(=O)O; Mob = COc1ccc(C*)cc1; Meb = Cc1ccc(C*)cc1; OBn = c1ccc(CO*)cc1; Bn = c1ccc(C*)cc1

Tests used:
Format in all cases: biochemical
cathepsin L = target: T1, cathepsin L (Homo sapiens, UniProt P07711); experiment: Kinetic parameters of ACC substrates with cathepsin L; conditions: for Km: read-out: KM; for hydrolysis by cathepsin L relative to Ac-His-Arg-Phe-Arg-ACC substrate: kcat/KM compared with reference substrate; for kcat/KM Cath-L: Fig. 5B, triplicate
T1 construct: made in house
T1 sequence (P07711 114-333): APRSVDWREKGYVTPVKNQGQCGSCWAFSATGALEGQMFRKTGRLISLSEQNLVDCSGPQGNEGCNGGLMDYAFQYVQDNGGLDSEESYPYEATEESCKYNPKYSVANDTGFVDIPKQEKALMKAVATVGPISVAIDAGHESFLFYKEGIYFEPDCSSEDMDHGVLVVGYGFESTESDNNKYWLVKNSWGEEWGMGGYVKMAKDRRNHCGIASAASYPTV
Procedure: (§1) All kinetic experiments were performed using fMax (Molecular Devices) and CLARIOStar (BMG LABTECH) spectrofluorimeters operating in kinetic mode using 96-well plates. ACC-labeled substrates were screened using 355 nm and 460 nm wavelengths (excitation and emission, respectively). […] The buffer was prepared at room temperature and the enzyme kinetic studies were performed at 37 °C.
(§2) Classic substrate velocity plots were analyzed according to Michaelis–Menten kinetics and a detailed protocol for the determination of kinetic parameters for ACC-tagged substrates is found elsewhere.[56] […] Experiments were repeated at least three times and results are presented as an average. The SDs were below 15%.

cathepsin B = target: T2, cathepsin B (Homo sapiens, UniProt P07858); experiment: Kinetic parameters of ACC substrates with cathepsin B; conditions: Fig. 5B; pH 5.5, 37 °C; cathepsin B 4–15 nM; triplicate, SD below 15%
T2 construct: made in house
Procedure: as §1, §2

cathepsin K = target: T3, cathepsin K (Homo sapiens, UniProt P43235); experiment: Kinetic parameters of ACC substrates with cathepsin K; conditions: Fig. 5B; pH 5.5, 37 °C; cathepsin K 5–20 nM; triplicate, SD below 15%
T3 construct: made in house
T3 sequence (P43235 115-329): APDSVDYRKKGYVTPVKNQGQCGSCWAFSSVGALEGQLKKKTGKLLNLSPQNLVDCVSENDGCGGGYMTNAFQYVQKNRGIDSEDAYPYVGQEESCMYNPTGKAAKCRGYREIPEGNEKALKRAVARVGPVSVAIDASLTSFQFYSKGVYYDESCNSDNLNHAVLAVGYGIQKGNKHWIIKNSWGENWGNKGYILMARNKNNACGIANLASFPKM
Procedure: as §1, §2

cathepsin V = target: T4, cathepsin V (Homo sapiens, UniProt O60911); experiment: Kinetic parameters of ACC substrates with cathepsin V; conditions: Fig. 5B; pH 5.5, 37 °C; cathepsin V 10–20 nM; triplicate, SD below 15%
T4 construct: made in house
T4 sequence (O60911 114-334): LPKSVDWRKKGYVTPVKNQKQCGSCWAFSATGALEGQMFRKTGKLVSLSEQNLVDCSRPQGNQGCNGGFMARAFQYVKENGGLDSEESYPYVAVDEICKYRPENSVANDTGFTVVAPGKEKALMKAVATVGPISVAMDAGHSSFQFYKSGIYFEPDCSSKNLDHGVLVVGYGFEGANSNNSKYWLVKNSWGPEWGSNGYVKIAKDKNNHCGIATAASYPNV
Procedure: as §1, §2

cathepsin S = target: T5, cathepsin S (Homo sapiens, UniProt P25774); experiment: Kinetic parameters of ACC substrates with cathepsin S; conditions: Fig. 5B; pH 5.5, 37 °C; cathepsin S 5–20 nM; triplicate, SD below 15%
T5 construct: made in house
T5 sequence (P25774 115-331): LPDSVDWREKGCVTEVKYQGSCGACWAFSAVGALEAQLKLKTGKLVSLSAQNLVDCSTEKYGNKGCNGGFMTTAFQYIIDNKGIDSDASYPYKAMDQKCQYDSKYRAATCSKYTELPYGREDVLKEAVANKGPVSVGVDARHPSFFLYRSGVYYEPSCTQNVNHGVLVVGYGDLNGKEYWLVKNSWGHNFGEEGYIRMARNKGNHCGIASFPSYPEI
Procedure: as §1, §2

[1] = Fig. 4B, ACC substrates, 100 mM sodium acetate, 100 mM NaCl, 10 mM DTT, 1 mM EDTA, pH 5.5, 37 °C, cathepsin L 0.1–0.5 nM, average of at least three, SD below 15%
[2] = Table S2, cathepsin L, four independent experiments, S.D. below 15%
[3] = pH 5.5, 37 °C, cathepsin L 0.1–0.5 nM, SD below 15%

| Substance | kcat/KM (cathepsin L; [1]) | kcat (cathepsin L; [2]) | Km (cathepsin L; [2]) | hydrolysis by cathepsin L relative to Ac-His-Arg-Phe-Arg-ACC substrate (cathepsin L) | kcat/KM (cathepsin L; [2]) | kcat/KM Cath-L (cathepsin L; [3]) | kcat/KM Cath-B (cathepsin B) | kcat/KM Cath-K (cathepsin K) | kcat/KM Cath-V (cathepsin V) | kcat/KM Cath-S (cathepsin S) |
| --- | --- | --- | --- | --- | --- | --- | --- | --- | --- | --- |
| Ac-[Dap]R[Phe(3-Cl)]R-{ACC} (SMILES CC(=O)N[C@@H](CN)C(=O)N[C@@H](CCCNC(=N)N)C(=O)N[C@@H](Cc1cccc(Cl)c1)C(=O)N[C@@H](CCCNC(=N)N)C(=O)Nc1ccc2c(CC(N)=O)cc(=O)oc2c1) | 25,400,000 M^-1s^-1 |  |  |  |  |  |  |  |  |  |
| Ac-[Dap][Orn][Phe(3-Cl)]C(Mob)-{ACC} (SMILES COc1ccc(CSC[C@H](NC(=O)[C@H](Cc2cccc(Cl)c2)NC(=O)[C@H](CCCN)NC(=O)[C@H](CN)NC(C)=O)C(=O)Nc2ccc3c(CC(N)=O)cc(=O)oc3c2)cc1) | 48,350,000 M^-1s^-1 | 193 s⁻¹ | 4.15 µM | ~4 times |  |  |  |  |  |  |
| Ac-[Dap][Orn][Phe(3-Cl)][hArg]-{ACC} (SMILES CC(=O)N[C@@H](CN)C(=O)N[C@@H](CCCN)C(=O)N[C@@H](Cc1cccc(Cl)c1)C(=O)N[C@@H](CCCCNC(=N)N)C(=O)Nc1ccc2c(CC(N)=O)cc(=O)oc2c1) | 30,500,000 M^-1s^-1 | 123 s⁻¹ | 4.21 µM |  | 30,500,000 M-1s-1 |  |  |  |  |  |
| Ac-H[dV][Phe(4-F)]R-{ACC} (SMILES CC(=O)N[C@@H](Cc1c[nH]cn1)C(=O)N[C@@H](C(=O)N[C@@H](Cc1ccc(F)cc1)C(=O)N[C@@H](CCCNC(=N)N)C(=O)Nc1ccc2c(CC(N)=O)cc(=O)oc2c1)C(C)C) |  |  |  |  |  | 6,991,000 M^-1s^-1 | 3,100 M^-1s^-1 | 2,580 M^-1s^-1 | 14,550 M^-1s^-1 | 1,800 M^-1s^-1 |
| Ac-H[dQ][Phe(F5)]R-{ACC} (SMILES CC(=O)N[C@@H](Cc1c[nH]cn1)C(=O)N[C@H](CCC(N)=O)C(=O)N[C@@H](Cc1c(F)c(F)c(F)c(F)c1F)C(=O)N[C@@H](CCCNC(=N)N)C(=O)Nc1ccc2c(CC(N)=O)cc(=O)oc2c1) |  |  |  |  |  | 336,900 M^-1s^-1 | 130 M⁻¹ s⁻¹ | < 10 M⁻¹ s⁻¹ | 1,070 M^-1s^-1 | < 10 M⁻¹ s⁻¹ |
| Ac-H[dV]T(Bn)R-{ACC} (SMILES CC(=O)N[C@@H](Cc1c[nH]cn1)C(=O)N[C@@H](C(=O)N[C@H](C(=O)N[C@@H](CCCNC(=N)N)C(=O)Nc1ccc2c(CC(N)=O)cc(=O)oc2c1)[C@@H](C)OCc1ccccc1)C(C)C) |  |  |  |  |  | 158,520 M^-1s^-1 | 480 M⁻¹ s⁻¹ | 130 M⁻¹ s⁻¹ | 424 M⁻¹ s⁻¹ | < 10 M⁻¹ s⁻¹ |
| Ac-[Dap][Orn][Phe(3-Cl)]K(ClZ)-{ACC} (SMILES CC(=O)N[C@@H](CN)C(=O)N[C@@H](CCCN)C(=O)N[C@@H](Cc1cccc(Cl)c1)C(=O)N[C@@H](CCCCNC(=O)OCc1ccccc1Cl)C(=O)Nc1ccc2c(CC(N)=O)cc(=O)oc2c1) | 29,280,000 M^-1s^-1 | 86.7 s⁻¹ | 2.98 µM |  | 29,280,000 M-1s-1 |  |  |  |  |  |
| Ac-H[dV][Phe(3,4-F2)]R-{ACC} (SMILES CC(=O)N[C@@H](Cc1c[nH]cn1)C(=O)N[C@@H](C(=O)N[C@@H](Cc1ccc(F)c(F)c1)C(=O)N[C@@H](CCCNC(=N)N)C(=O)Nc1ccc2c(CC(N)=O)cc(=O)oc2c1)C(C)C) |  |  |  |  |  | 6,031,000 M^-1s^-1 | 2,520 M^-1s^-1 | 1,010 M^-1s^-1 | 10,100 M^-1s^-1 | 580 M⁻¹ s⁻¹ |
| Ac-[Dap][Orn][Phe(3-Cl)]C(Bn)-{ACC} (SMILES CC(=O)N[C@@H](CN)C(=O)N[C@@H](CCCN)C(=O)N[C@@H](Cc1cccc(Cl)c1)C(=O)N[C@@H](CSCc1ccccc1)C(=O)Nc1ccc2c(CC(N)=O)cc(=O)oc2c1) | 45,420,000 M^-1s^-1 | 191 s⁻¹ | 4.28 µM |  | 45,420,000 M-1s-1 |  |  |  |  |  |
| Ac-[Dap][Orn][Phe(3-Cl)]L-{ACC} (SMILES CC(=O)N[C@@H](CN)C(=O)N[C@@H](CCCN)C(=O)N[C@@H](Cc1cccc(Cl)c1)C(=O)N[C@@H](CC(C)C)C(=O)Nc1ccc2c(CC(N)=O)cc(=O)oc2c1) | 11,290,000 M^-1s^-1 | 41.8 s⁻¹ | 3.7 µM |  | 11,290,000 M-1s-1 |  |  |  |  |  |
| Ac-[Dap][Orn][Phe(3-Cl)]K-{ACC} (SMILES CC(=O)N[C@@H](CN)C(=O)N[C@@H](CCCN)C(=O)N[C@@H](Cc1cccc(Cl)c1)C(=O)N[C@@H](CCCCN)C(=O)Nc1ccc2c(CC(N)=O)cc(=O)oc2c1) | 19,810,000 M^-1s^-1 | 141 s⁻¹ | 7.11 µM |  | 19,810,000 M-1s-1 |  |  |  |  |  |
| Ac-[Dap][Orn][Phe(3-Cl)]E(OBn)-{ACC} (SMILES CC(=O)N[C@@H](CN)C(=O)N[C@@H](CCCN)C(=O)N[C@@H](Cc1cccc(Cl)c1)C(=O)N[C@@H](CCC(=O)OCc1ccccc1)C(=O)Nc1ccc2c(CC(N)=O)cc(=O)oc2c1) | 34,270,000 M^-1s^-1 | 188 s⁻¹ | 5.67 µM |  | 34,270,000 M-1s-1 |  |  |  |  |  |
| Ac-[Dab]R[Phe(3-Cl)]R-{ACC} (SMILES CC(=O)N[C@@H](CCN)C(=O)N[C@@H](CCCNC(=N)N)C(=O)N[C@@H](Cc1cccc(Cl)c1)C(=O)N[C@@H](CCCNC(=N)N)C(=O)Nc1ccc2c(CC(N)=O)cc(=O)oc2c1) | 31,960,000 M^-1s^-1 |  |  |  |  |  |  |  |  |  |
| Ac-[Dap][Orn][Phe(3-Cl)]R-{ACC} (SMILES CC(=O)N[C@@H](CN)C(=O)N[C@@H](CCCN)C(=O)N[C@@H](Cc1cccc(Cl)c1)C(=O)N[C@@H](CCCNC(=N)N)C(=O)Nc1ccc2c(CC(N)=O)cc(=O)oc2c1) | 36,310,000 M^-1s^-1 | 195 s⁻¹ | 5.38 µM |  | 36,310,000 M-1s-1 |  |  |  |  |  |
| Ac-Dap-Orn-Phe(3-Cl)-Nle(OBzl)-ACC | 47,400,000 M^-1s^-1 | 124 s⁻¹ | 2.63 µM | ~4 times | 47,400,000 M-1s-1 |  |  |  |  |  |
| Ac-[Dap][Orn][Phe(3-Cl)]C(Meb)-{ACC} (SMILES CC(=O)N[C@@H](CN)C(=O)N[C@@H](CCCN)C(=O)N[C@@H](Cc1cccc(Cl)c1)C(=O)N[C@@H](CSCc1ccc(C)cc1)C(=O)Nc1ccc2c(CC(N)=O)cc(=O)oc2c1) | 41,660,000 M^-1s^-1 | 207 s⁻¹ | 4.99 µM |  |  |  |  |  |  |  |
| Ac-[Dab][Orn][Phe(3-Cl)]R-{ACC} (SMILES CC(=O)N[C@@H](CCN)C(=O)N[C@@H](CCCN)C(=O)N[C@@H](Cc1cccc(Cl)c1)C(=O)N[C@@H](CCCNC(=N)N)C(=O)Nc1ccc2c(CC(N)=O)cc(=O)oc2c1) | 35,070,000 M^-1s^-1 |  |  |  |  |  |  |  |  |  |
